Values after ≈ are worked out from the molar mass of the structure shown.
Legend:
Assay type in all cases: cell-based
[1] = test system: ASPC1-CSC; assay: MTS cell viability assay, ASPC1-CSC; conditions: Table 6, tumor stem cell, 72 hours; read-out: IC50 against ASPC1-CSC
Procedure: (§1) Primary viability screening: (1) the synthesized compounds 3a to 13d were respectively dissolved in DMSO to prepare a 40 μg/mL cannabicyclol and cannabicyclol derivative solutions.
(§2) (2) A control group: a 200 μL DMSO solvent.
(§3) (3) The solutions of compounds 3a to 13d were diluted in a twofold gradient to obtain cannabicyclol and cannabicyclol derivative solutions at concentrations of 40 μg/mL, 20 μg/mL, 10 μg/mL, 5 μg/mL, 2.5 μg/mL, 1.25 μg/mL, and 0.625 μg/mL, and 0.3125 μg/mL, respectively.
(§4) (4) Three glioblastoma stem cells (GSC-3, GSC-12, and GSC-18), three pancreatic cancer cell-derived stem cells (PANC-1-CSC, BXPC-3-CSC, and ASPC1-CSC), three liver cancer cell-derived stem cells (HepG2-CSC, MHCC97H-CSC, and SMMC7721-CSC), HEK-293T cells, 16 tumor cells (U251, U87, T98G, PANC1, BXPC3, ASPC1, HepG2, MHCC97H, SMMC7721, PC3, SKOV3, MDA-MB231, A549, HCT116, HEC-1B, MKN28), and differentiated glioblastoma stem cells (GSC-3diff and GSC-12diff) derived from GSC-3 and GSC-12 (all of the cells were provided by the Laboratory of Tumor Animal Model Preparation and Application Research, West China Hospital, Sichuan University) were inoculated into a 96-well plate at a concentration of 2×10^4 cells/well, and 100 μL of culture medium was then added to each well; […]
(§5) (10) The absorbance value at 490 nm was measured on an enzyme labeling apparatus, and the IC50 value was calculated.

[2] = test system: MHCC97H-CSC; assay: MTS cell viability assay, MHCC97H-CSC; conditions: Table 6, tumor stem cell, 72 hours; read-out: IC50 against MHCC97H-CSC
Procedure: as §1, §2, §3, §4, §5

[3] = test system: GSC-3; assay: Soft agar colony (clone) formation, GSC-3; conditions: crystal violet, FIG. 4, compound 3a 0, 5 and 5 [sic] μg/mL
Procedure: […] of low-melting-point agarose was dissolved in 12.5 mL of ddH2O to prepare a 3.2% low-melting-point agarose gel. The low-melting-point agarose gel was sterilized by autoclaving at 121° C. and 0.12 MPa for 20 minutes. After sterilization, the low-melting-point agarose gel was maintained at 60° C. in a drying oven for further use.
1.75 mL of 3.2% sterile low-melting-point agarose gel was taken, 5.25 mL of the corresponding complete medium was added, and the two were mixed thoroughly using a pipette to prepare a base gel at a concentration of 0.8%.
1 mL of the base gel was added to each well of a 6-well plate, ensuring that the base gel evenly covered the bottom of each well. The plate was placed at 4° C. for 5 minutes to allow the gel to solidify. After the gel had fully solidified, the plate was warmed at 37° C. for 5 minutes.
6 cells/cell lines (U251, SMMC7721, GSC-3, GSC-12, SMMC7721-CSC, and HepG2-CSC) were individually digested with 1× trypsin for 3 minutes. The corresponding complete culture medium (same as in the application example 1) was added to terminate the digestion. Cells were centrifuged at 1000 rpm for 3 minutes, and the cells were collected and counted. A total of 5×10^3 cells were added to each well, each group was set up with three replicates. […]

[4] = test system: HEK-293T, GSC-3diff, GSC-12diff and 16 tumor cells; assay: MTS cell viability assay, summary over HEK-293T, GSC-3diff, GSC-12diff and 16 tumor cells; conditions: summary of Table 7 in words
Procedure: as §1, §2, §3, §4, §5

## CCCCCc1cc(O)c2c(c1)OC1(C)CCC3C1C2C3(C)C (stereo not shown) [Compound 3a, cannabicyclol]
[1]
  IC50: 14.6 µg/mL (≈ 46.3 µM)
[2]
  IC50: 5.32 µg/mL (≈ 16.9 µM)
[3]
  colony formation of GSC-3: significantly inhibited
[4]
  inhibitory effects on HEK-293T, GSC-3diff, GSC-12diff and the 16 tumor cells: no significant inhibitory effects

Reference: patent US20250353825A1, “CANNABICYCLOL DERIVATIVES AND PREPARATION METHODS THEREOF” (priority 2023, published 2025)
